According to patent US7507727B2, “Substituted quinobenzoxazine analogs and methods of using thereof” (Cylene Pharmaceuticals, Inc., priority 2003, dated 2009):
Read-outs that look alike come from different tables or passages of the source.

How the values were obtained:
HeLa cells = assay: MTS cell proliferation and/or cytotoxicity assay; format: cell-based, Human
How it was run: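 HeLa cells seeded at 4,500 cells/well, exposed to compounds from day 1 for 3 days at 37 °C, 5% CO2. Viability by MTS/PMS (20:1) with 4 h incubation, absorbance at 490 nm. Values are concentrations giving 50% antiproliferative response.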

[1] = biological target: c-Myc template DNA (c-myc quadruplex); assay: Quadruplex binding / stop assay (Taq polymerase arrest, capillary electrophoresis)
[2] = Homo sapiens, HeLa, 72 h, concentration at which 50% of antiproliferative cell response is seen, 3 days incubation, read-out: MTS Data Hella
[3] = read-out: Stop Data c-Myc μM, concentration at which 50% of the DNA was arrested (arrested:full-length 1:1)
[4] = concentration at which 50% of antiproliferative cell response is seen, 3 days incubation, read-out: MTS Data Hella
[5] = Homo sapiens, HeLa, HeLa cells, MTS, read-out: Hela MTS
[6] = read-out: S DATA, Table 1D, stop assay data

Row | Structure (SMILES) | IC50 [1, 3] [µM] | IC50 [1, 6] [µM] | IC50 (HeLa cells; [2]) [nM] | IC50 (HeLa cells; [4]) [nM] | IC50 (HeLa cells; [5]) [nM]
1 | Nc1c(F)c(NCCCN2CCOCC2)c2c3c1c(=O)c(C(=O)NCCN1CCCC1)cn3-c1cc3ccccc3cc1O2 [compound 377] | 0.75 | – | 2200 | – | –
2 | CN1CCCC1CCNC(=O)c1cn2c3c(c(N4CCC(CCCC5CCNCC5)CC4)c(F)cc3c1=O)Oc1cc3ccccc3cc1-2 (centres unmarked) [compound 1494] | – | 0.375 | – | – | 310
3 | N[C@H]1CCN(c2c(F)cc3c(=O)c(C(=O)NCCN4CCCC4)cn4c3c2Oc2cc3ccccc3cc2-4)C1 [compound 341] | 0.9 | – | 280 | – | –
4 | NC1CCN(c2c(F)cc3c(=O)c(C(=O)NCCc4cnc[nH]4)cn4c3c2Oc2cc3ccccc3cc2-4)C1 (centres unmarked) [compound 379] | 0.75 | – | 1900 | – | –
5 | O=C(NCCN1CCCC1)c1cn2c3c(c(NCC4CCCO4)c(F)cc3c1=O)Oc1cc3ccccc3cc1-2 (centres unmarked) [compound 31] | 3 | – | 1400 | – | –
6 | CN(C)CCCCNC(=O)c1cn2c3c(c(N4CC[C@H](N)C4)c(F)cc3c1=O)Oc1ccccc1-2 [compound 108] | 1.75 | – | 460 | – | –
7 | O=C(CCNCCN1CCOCC1)N[C@@H]1CCN(c2c(F)cc3c(=O)c(C(=O)NCCN4CCCC4)cn4c3c2Oc2cc3c(cc2-4)oc2ccccc23)C1 [compound 358] | 0.75 | – | 5700 | – | –
8 | CCN(CC)C1CCN(c2c(F)cc3c(=O)c(C(=O)NCCC4CCCN4C)cn4c3c2Oc2cc3ccccc3cc2-4)C1 (centres unmarked) [compound 105] | 1.75 | – | 2800 | – | –
9 | CN1CCCC1CCNC(=O)c1cn2c3c(c(N4CC[C@@H](N)C4)c(F)cc3c1=O)Oc1c-2ccc2ccccc12 (some centres unmarked) [compound 110] | 1.75 | – | 250 | – | –
10 | CN(C)C1CCN(c2c(F)cc3c(=O)c(C(=O)NCCC4CCCN4C)cn4c3c2Oc2cc3ccccc3cc2-4)C1 (centres unmarked) [compound 104] | 1.75 | – | 2800 | – | –
11 | CN1CCCC1CCNC(=O)c1cn2c3c(c(N[C@H]4CN5CCC4CC5)c(F)cc3c1=O)Oc1cc3ccccc3cc1-2 (some centres unmarked) [compound 536] | 0.375 | – | 310 | – | –
12 | CN1CCCC1CCNC(=O)c1cn2c3c(c(NCCCN4CCOCC4)c(F)c(N)c3c1=O)Oc1cc3ccccc3cc1-2 (centres unmarked) [compound 380] | 0.75 | – | 1800 | – | –
13 | CCN(CC)CCCC(C)NC(=O)c1cn2c3c(c(N4CC5CCCNC5C4)c(F)cc3c1=O)Oc1cc3ccccc3cc1-2 (centres unmarked) [compound 385] | 0.75 | – | 360 | – | –
14 | O=C(NCCN1CCCC1)c1cn2c3cc4c(cc3oc3c(N5CC6CCCNC6C5)c(F)cc(c1=O)c32)c(=O)c1ccccc14 (centres unmarked) [compound 1726] | – | 0.125 | – | – | 2600
15 | O=C(NCCN1CCCC1)c1cn2c3c(c(NCCCN4CCOCC4)c(F)cc3c1=O)Oc1cc3c(O)ncnc3cc1-2 [compound 107] | 1.75 | – | 1800 | – | –
16 | O=C(NCCN1CCCC1)c1cn2c3c(c(N4CCC(c5cnccn5)C4)ccc3c1=O)Oc1ccccc1-2 (centres unmarked) [compound 30] | 3 | – | 1800 | – | –
17 | CCN(CC)CCCC(C)NC(=O)c1cn2c3c(c(N4CCC(c5cnccn5)C4)ccc3c1=O)Oc1ccccc1-2 (centres unmarked) [compound 29] | 3 | – | 2000 | – | –
18 | O=C(NCCN1CCCC1)c1cn2c3c(c(N4CCC(c5cnccn5)C4)c(F)cc3c1=O)Oc1ccc(Cl)cc1-2 (centres unmarked) [compound 1795] | – | 2.9 | – | – | 500
19 | CN(CCc1ccccn1)C(=O)c1cn2c3c(c(NCCCN4CCOCC4)c(F)cc3c1=O)Oc1cc3c(cc1-2)-c1ccccc1C3 [compound 307] | 1 | – | 3100 | – | –
20 | CN(C)CCCCNC(=O)c1cn2c3c(c(N4CC[C@@H](N)C4)c(F)cc3c1=O)Oc1ccccc1-2 [compound 106] | 1.75 | – | 2500 | – | –
21 | CN1CCCC1CCNC(=O)c1cn2c3c(c(NCC4(O)CCCCC4)c(F)cc3c1=O)Oc1cc3ccccc3cc1-2 (centres unmarked) [compound 1665] | – | 0.75 | – | – | 240
22 | CN1CCCC1CCNC(=O)c1cn2c3c(c(N4CCC(c5cnccn5)C4)c(F)cc3c1=O)Oc1cc3ccccc3cc1-2 (centres unmarked) [compound 1512] | – | 0.78 | – | – | 3100
23 | CN1CCCC1CCNC(=O)c1cn2c3c(c(NCCCN4CCOCC4)c(F)cc3c1=O)Oc1cc3c(cc1-2)oc1ccccc13 (centres unmarked) [compound 362] | 0.75 | – | 4000 | – | –

More lines, in order of falling IC50 [1, 3], values ahead:

Row | IC50 [1, 3] [µM] | IC50 [1, 6] [µM] | Structure (SMILES) | IC50 (HeLa cells; [2]) [nM] | IC50 (HeLa cells; [4]) [nM] | IC50 (HeLa cells; [5]) [nM]
24 | 0.62 | – | CN1CCCC1CCNC(=O)c1cn2c3c(c(N4CCC(N)C4)c(F)cc3c1=O)Oc1cc3ccccc3cc1-2 (centres unmarked) [compound 472] | – | 3300 | –
25 | 0.58 | – | CN1CCCC1CCNC(=O)c1cn2c3c(c(N4CC[C@H](N)C4)c(F)cc3c1=O)Oc1cc3ccccc3cc1-2 (some centres unmarked) [compound 474] | 370 | – | –
26 | 0.55 | – | O=C(NCCN1CCCC1)c1cn2c3c(c(NCCN4CCCC4)c(F)cc3c1=O)Oc1cc3c(cc1-2)oc1ccccc13 [compound 477] | 2100 | – | –
27 | 0.5 | – | O=C(NCCN1CCCC1)c1cn2c3cc4oc5cc([N+](=O)[O-])ccc5[nH]c4cc3oc3c(NCCN4CCCC4)c(F)cc(c1=O)c32 [compound 479] | 7400 | – | –
28 | 0.5 | – | CC1(C)CC(NC(=O)c2cn3c4c(c(N5CC6CCCNC6C5)c(F)cc4c2=O)Oc2cc4ccccc4cc2-3)CC(C)(C)N1 (centres unmarked) [compound 487] | 180 | – | –
29 | 0.375 | – | O=C(CN1CCCC1)N[C@@H]1CCN(c2c(F)cc3c(=O)c(C(=O)NCCN4CCCC4)cn4c3c2Oc2cc3c(cc2-4)oc2ccccc23)C1 [compound 506] | 3400 | – | –
30 | 0.375 | – | O=C(NCCN1CCCC1)c1cn2c3c(c(N4CC5CCCNC5C4)c(F)cc3c1=O)Oc1cc3ccccc3cc1-2 (centres unmarked) [compound 545] | 150 | – | –
31 | 0.375 | – | CN1CCCC1CCNc1c(F)cc2c(=O)c(C(=O)NCCN3CCOCC3)cn3c4cc5c(cc4oc1c23)c(=O)c1ccccc15 (centres unmarked) [compound 517] | 2200 | – | –
32 | 0.375 | – | CC(C)NCCCNC(=O)c1cn2c3c(c(N4CCC(N)C4)c(F)cc3c1=O)Oc1cc3ccccc3cc1-2 (centres unmarked) [compound 541] | 270 | – | –
33 | 0.375 | – | NC1CCN(c2c(F)cc3c(=O)c(C(=O)NCCCn4ccnc4)cn4c3c2Oc2cc3c(cc2-4)oc2ccccc23)C1 (centres unmarked) [compound 521] | 1700 | – | –
34 | 0.375 | – | CN(C)CCCCNC(=O)c1cn2c3c(c(N4CC[C@@H](NC(=O)CCN5CCCC5)C4)c(F)cc3c1=O)Oc1cc3c(cc1-2)oc1ccccc13 [compound 510] | 3100 | – | –
35 | 0.375 | – | CN1CCCC1CCNC(=O)c1cn2c3c(c(N4CCC(N)C4)c(F)cc3c1=O)Oc1cc3c(cc1-2)Cc1ccccc1-3 (centres unmarked) [compound 537] | 290 | – | –
36 | 0.375 | – | CN(C)CCCCNc1c(F)cc2c(=O)c(C(=O)NCCC3CCCN3C)cn3c4cc5c(cc4oc1c23)c(=O)c1ccccc15 (centres unmarked) [compound 501] | 4200 | – | –
37 | 0.375 | – | CN(C)CCCCNc1c(F)cc2c(=O)c(C(=O)NCCN3CCCC3)cn3c4cc5c(cc4oc1c23)c(=O)c1ccccc15 [compound 515] | 2500 | – | –
38 | 0.375 | – | CN1CCCC1CCNC(=O)c1cn2c3c(c(N4CC[C@H](N)C4)c(N)cc3c1=O)Oc1cc3ccccc3cc1-2 (some centres unmarked) [compound 526] | 900 | – | –
39 | 0.375 | – | CN(C)CCCCNC(=O)c1cn2c3cc4c(cc3oc3c(NCCCN5CCOCC5)c(F)cc(c1=O)c32)c(=O)c1ccccc14 [compound 519] | 2100 | – | –
40 | 0.375 | – | CN(C)CCCCNC(=O)c1cn2c3c(c(N4CC[C@@H](NC(=O)CCNCCCn5ccnc5)C4)c(F)cc3c1=O)Oc1cc3c(cc1-2)oc1ccccc13 [compound 500] | 5600 | – | –
41 | 0.375 | – | CN1CCN(CC(=O)N[C@@H]2CCN(c3c(F)cc4c(=O)c(C(=O)NCCN5CCCC5)cn5c4c3Oc3cc4c(cc3-5)oc3ccccc34)C2)CC1 [compound 505] | 3400 | – | –
42 | 0.375 | – | CCN(CC)CCCC(C)NC(=O)c1cn2c3c(c(N4CCC(N)C4)c(F)cc3c1=O)Oc1cc3ccccc3cc1-2 (centres unmarked) [compound 542] | 230 | – | –
43 | 0.32 | – | O=C(NCCC1CCCN1)c1cn2c3c(c(NCCCN4CCOCC4)c(F)cc3c1=O)Oc1cc3c(cc1-2)oc1ccccc13 (centres unmarked) [compound 562] | 850 | – | –
44 | 0.25 | – | N[C@@H]1CCN(c2c(F)cc3c(=O)c(C(=O)NCCC4CCCN4)cn4c3c2Oc2cc3c(cc2-4)oc2ccccc23)C1 (some centres unmarked) [compound 563] | 310 | – | –
45 | 0.25 | – | N[C@@H]1CCN(c2c(F)cc3c(=O)c(C(=O)NCCN4CCCC4)cn4c3c2Oc2cc3ccccc3cc2-4)C1 [compound 565] | 200 | – | –
46 | 0.25 | – | CN1CCN(CCCNC(=O)c2cn3c4c(c(N5CCC(N)C5)c(F)cc4c2=O)Oc2cc4c(cc2-3)oc2ccccc24)CC1 (centres unmarked) [compound 1467] | 350 | – | –
47 | 0.18 | – | N[C@H]1CCN(c2c(F)cc3c(=O)c(C(=O)NCCN4CCCC4)cn4c5cc6c(cc5oc2c34)c(=O)c2ccccc26)C1 [compound 583] | 250 | – | –
48 | 0.18 | – | CN(C)CCCCNc1c(F)cc2c(=O)c(C(=O)NCCC3CCCN3C)cn3c4cc5oc6cc([N+](=O)[O-])ccc6[nH]c5cc4oc1c23 (centres unmarked) [compound 569] | 7800 | – | –
49 | 0.18 | – | CN(C)CCCCNC(=O)c1cn2c3cc4c(cc3oc3c(NCCN5CCCC5)c(F)cc(c1=O)c32)c(=O)c1ccccc14 [compound 584] | 190 | – | –
50 | 0.18 | – | O=C(NCCN1CCCC1)c1cn2c3c(c(N4CC5CCCNC5C4)c(F)cc3c1=O)Oc1cc3ccccc3cc1-2 (centres unmarked) [compound 581] | – | 300 | –
51 | 0.18 | – | CN1CCCC1CCNC(=O)c1cn2c3cc4oc5cc([N+](=O)[O-])ccc5[nH]c4cc3oc3c(NCCN4CCCC4)c(F)cc(c1=O)c32 (centres unmarked) [compound 570] | 6800 | – | –
52 | 0.18 | – | CN1CCCC1CCNC(=O)c1cn2c3cc4c(cc3oc3c(NCCN5CCCC5)c(F)cc(c1=O)c32)c(=O)c1ccccc14 (centres unmarked) [compound 575] | 2100 | – | –
